Laboratory results as given in article PMC6411751, “Use of machine learning to identify novel, behaviorally active antagonists of the insect odorant receptor co-receptor (Orco) subunit” (Scientific Reports, 2019).
Where a name gives a salt, the structure may show the parent alone.

Key:
Agam\Or39 + Agam\Orco = target: T1, Agam\Or39 + Agam\Orco (Anopheles gambiae, UniProt Q7QCC7); assay: Inhibition of heteromeric OR in oocytes (6-methyl-5-hepten-2-one activation); format: cell-based; details: 100 µM antagonist; 10 µM 6-methyl-5-hepten-2-one
T1 construct: expressed in transfected cells; host or cells: Xenopus laevis oocytes
T1 sequence (Q7QCC7 1-478): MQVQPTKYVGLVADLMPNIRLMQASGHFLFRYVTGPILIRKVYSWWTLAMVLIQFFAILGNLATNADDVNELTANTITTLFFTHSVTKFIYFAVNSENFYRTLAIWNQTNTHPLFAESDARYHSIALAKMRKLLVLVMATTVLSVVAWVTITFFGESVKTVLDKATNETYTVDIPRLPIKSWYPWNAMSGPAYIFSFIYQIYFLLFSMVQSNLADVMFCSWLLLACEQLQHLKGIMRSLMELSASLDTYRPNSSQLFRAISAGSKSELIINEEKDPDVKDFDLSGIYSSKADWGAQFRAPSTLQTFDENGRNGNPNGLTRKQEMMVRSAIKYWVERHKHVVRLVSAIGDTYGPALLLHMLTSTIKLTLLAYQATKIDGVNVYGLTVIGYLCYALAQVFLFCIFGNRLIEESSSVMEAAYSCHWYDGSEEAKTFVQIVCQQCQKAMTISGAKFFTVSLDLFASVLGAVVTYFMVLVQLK
Description: (§1) An automated parallel electrophysiology system (OpusExpress 6000 A, Molecular Devices) was used to record Orco agonist (OLC12) or odorant induced currents under two-electrode voltage clamp. Oocytes were perfused with ND96 (in mM: 96 NaCl, 2 KCl, 1 CaCl2, 1 MgCl2, 5 HEPES, pH 7.4). DMSO was used to prepare 1 M or 100 mM stock solutions of test compounds, which were then diluted in ND96 on the day of the experiment. Compounds were applied at a flow rate of 1.0 mL/min, with extensive washing in ND96 at 4.6 mL/min between applications. Micropipettes with resistances of 0.2–2.0 MΩ were filled with 3 M KCl. The holding potential was −70 mV. Current responses were filtered (4-pole, Bessel, low pass) at 20 Hz (−3 db) and sampled at 100 Hz. OpusXpress 1.1 software (Molecular Devices) was used to capture and store current responses.
(§2) To measure the ability of Orco antagonists to inhibit odorant activation, oocytes expressing heteromeric ORs (Orco + ORX) were exposed to a 30 sec application of odorant followed by a 20 min wash. Oocytes were then exposed to a 90 sec application of Orco antagonist, immediately followed by a 30 sec co-application of Orco antagonist and odorant. The current response to odorant in the presence of Orco antagonist was compared to the preceding response to odorant alone and represented as a percentage. This value was then normalized to the value obtained when the assay was run in the absence of antagonist (sham).
(§3) Figure S3. Effects of Orco antagonists on heteromeric ORs. […]
heteromeric complexes of odorant specificity subunits and Orco. The Orco antagonists tested were 3-isopropyl-6-methyl-catechol (3 I6 MC), a potent compound from the input training set, and two compounds id e ntified in Fig u re 4 an d Ta b le 1 : 2-tert-butyl-6-methylphenol (B MP ) and linalyl formate (LF) . […]
Statistical significance of the data in each panel was assessed by one-way analysis of variance followed by Dunnett’s […]

Dmel\Or35a + Dmel\Orco = target: T2, Dmel\Or35a + Dmel\Orco (Drosophila melanogaster, UniProt Q9VNB5); assay: Inhibition of heteromeric OR in oocytes (hexanol or OLC12 activation); format: cell-based; details: for inhibition of odorant activation: 100 µM antagonist, 1 µM hexanol; for antagonism of OLC12 (Orco agonist) activation of heteromeric OR: 100 or 300 µM antagonist, 10 µM OLC12
T2 construct: expressed in transfected cells; host or cells: Xenopus laevis oocytes
T2 sequence (Q9VNB5 1-486): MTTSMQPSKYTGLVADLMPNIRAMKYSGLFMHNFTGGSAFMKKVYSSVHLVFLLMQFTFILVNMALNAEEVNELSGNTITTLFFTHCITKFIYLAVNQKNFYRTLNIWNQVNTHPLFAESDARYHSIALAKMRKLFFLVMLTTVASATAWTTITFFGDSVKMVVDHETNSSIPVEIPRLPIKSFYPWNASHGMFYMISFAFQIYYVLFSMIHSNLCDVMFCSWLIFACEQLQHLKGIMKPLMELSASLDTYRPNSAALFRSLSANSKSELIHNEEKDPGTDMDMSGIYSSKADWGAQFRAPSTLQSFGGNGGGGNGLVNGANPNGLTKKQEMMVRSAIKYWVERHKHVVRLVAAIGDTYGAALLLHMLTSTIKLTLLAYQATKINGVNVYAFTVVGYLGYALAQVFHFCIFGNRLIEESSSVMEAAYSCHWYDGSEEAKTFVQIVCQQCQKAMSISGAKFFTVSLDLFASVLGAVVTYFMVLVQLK
T2 sequence (Q9V3Q2 1-409 partner): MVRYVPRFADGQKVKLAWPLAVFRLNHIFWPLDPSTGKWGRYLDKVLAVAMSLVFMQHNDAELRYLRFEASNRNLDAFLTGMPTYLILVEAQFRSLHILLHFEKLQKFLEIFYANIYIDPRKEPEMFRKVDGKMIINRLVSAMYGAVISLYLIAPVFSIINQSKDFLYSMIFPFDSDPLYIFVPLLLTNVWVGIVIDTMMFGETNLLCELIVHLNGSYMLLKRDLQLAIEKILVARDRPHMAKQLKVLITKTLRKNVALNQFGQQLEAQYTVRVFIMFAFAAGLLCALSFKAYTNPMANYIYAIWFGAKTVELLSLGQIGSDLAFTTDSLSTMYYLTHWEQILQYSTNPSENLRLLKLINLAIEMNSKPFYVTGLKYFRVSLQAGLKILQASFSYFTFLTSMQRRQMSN
Description: as §1, §2, §3
heteromeric complexes of odorant specificity subunits and Orco. The Orco antagonists tested were 3-isopropyl-6-methyl-catechol (3 I6 MC), a potent compound from the input training set, and two compounds id e ntified in Fig u re 4 an d Ta b le 1 : 2-tert-butyl-6-methylphenol (B MP ) and linalyl formate (LF) . These compounds were tested for antagonist activity against odorant activation of three ORs from Anopheles gambiae (Agam\Or28 + Agam\Orco, Agam\Or39 + A ga m\Orco, Agam\Or65 + A ga m\Orco), o ne O R fro m Culex quinquefasciatus, the southern house mosquito (Cq u i\Or21 + Cqui\Orco) an d on e O R f ro m Drosophila melanogaster (Dme l\Or35a + Dmel\Orco). Each OR was activated by its cognate odorant agonist applied at an approximate EC50 concentration. […]
SEM (n = 4). […] Statistical significance of the data in each panel was assessed by one-way analysis of variance followed by Dunnett’s multiple comparison test using the pre-normalized values for each antagonist compared to the values obtained in the sham recordings (*, p < 0 .0 5; **, p < 0. 01; ***, p < 0 . 00 1 ).

SMILES	inhibition of odorant activation (Agam\Or39 + Agam\Orco)	inhibition of odorant activation (Dmel\Or35a + Dmel\Orco)	antagonism of OLC12 (Orco agonist) activation of heteromeric OR (Dmel\Or35a + Dmel\Orco)
Cc1cccc(C(C)(C)C)c1O [BMP, 2-tert-butyl-6-methylphenol]	able to inhibit odorant activation	able to inhibit odorant activation	able to antagonize OLC12
Cc1ccc(C(C)C)c(O)c1O [3I6MC, 3-isopropyl-6-methyl catechol]	could inhibit odorant activation	could inhibit odorant activation	could antagonize OLC12
C=CC(C)(CCC=C(C)C)OC=O (stereo not drawn) [LF, linalyl formate]	able to inhibit odorant activation	able to inhibit odorant activation	able to antagonize OLC12
